This is an account of results in patent US20250206730A1 (AUTOTELIC BIO INC., priority 2022, published 2025).

pIC50: −log10 of the molar value.

In the assay the test system is TGF-β signaling. The assay is described as follows: Assay for evaluating cellular inhibition of TGF-β signaling, 4T1 (SBE-luc2P) luciferase reporter. The format is cell-based. Conditions: Mus musculus, 4T1, 4T1 (SBE-luc2P) transient pool, 0.2% FBS, 2 h pre-treatment, TGF-β1 2 ng/mL 24 h; read-out: IC50 4T1 Cell. The method, then: [Example 2] Assay for Evaluating Cellular Inhibition of TGF-β Signaling
4T1 (SBE-luc2P) transient pool that have SBE-luc2P (hygro) expression plasmid or HEK293 (SBE reporter) stable cells (BPS bioscience) were seeded at 6×10^3 cells/well or 2.5×10^4 cells/well in 96-well plate, respectively. 4T1 (SBE-luc2P) transient pool were pre-treated with novel compound synthesized in Example 1 above in 0.2% FBS at approximately 60% confluence at 37° C. in 5% CO2. Also, HEK293 (SBE reporter) stable cells were pre-treated with each test compounds of formula in 0.5% FBS at approximately 80% confluence at 37° C. in 5% CO2. After 2 hours, cells were treated with TGF-β1 (2 ng/mL) for 24 h at 37° C. in 5% CO2. Cell lysates were prepared using Luciferase Assay (Promega) according to the manufacturer's instruction, and luminescence was measured by a plate reader, Biotek Synergy H1 (Vermont, USA).

In the case of `CN(C)S(=O)(=O)c1cccc(Nc2cc(Oc3sc(N)nc3-c3ccccc3)ccn2)c1` [A-13, 3-((4-((2-Amino-4-phenylthiazol-5-yl)oxy)pyridin-2-yl)amino)-N,N-dimethylbenzenesulfonamide], the pIC50 is over 7.00.

Take `COc1ccc(Nc2cc(Oc3sc(C)nc3-c3ccccc3)ccn2)cc1` [A-103, N-(4-Methoxyphenyl)-4-((2-methyl-4-phenylthiazol-5-yl)oxy)pyridin-2-amine]: the pIC50 is under 7.00.

Consider `COCCN1CCN(c2ccc(Nc3cc(Oc4sc(C)nc4-c4ccccc4)ccn3)cc2)CC1` [A-108, N-(4-(4-(2-Methoxyethyl)piperazin-1-yl)phenyl)-4-((2-methyl-4-phenylthiazol-5-yl)oxy)pyridin-2-amine], for which the pIC50 is over 7.00.

Take `Cc1nc(-c2ccccc2)c(Oc2ccnc(Nc3cnn(S(C)(=O)=O)c3)c2)s1` [A-97, 4-((2-Methyl-4-phenylthiazol-5-yl)oxy)-N-(1-(methylsulfonyl)-1H-pyrazol-4-yl)pyridin-2-amine]: the pIC50 is under 7.00.

For `CCc1nc(-c2ccccc2)c(Oc2ccnc(Nc3cccc(NS(=O)(=O)C(F)(F)F)c3)c2)s1` [A-311, N-(3-((4-((2-Ethyl-4-phenylthiazol-5-yl)oxy)pyridin-2-yl)amino)phenyl)-1,1,1-trifluoromethanesulfonamide], the pIC50 was over 7.00.

As for `Cc1nc(-c2ccccc2)c(Oc2ccnc(NCc3ccc(F)cc3)c2)s1` [A-95, N-(4-Fluorobenzyl)-4-((2-methyl-4-phenylthiazol-5-yl)oxy)pyridin-2-amine], the pIC50 was under 7.00.

With `NC(=O)c1ccc(Nc2cc(Oc3sc(N)nc3-c3ccccc3)ccn2)cn1` [A-11, 5-((4-((2-Amino-4-phenylthiazol-5-yl)oxy)pyridin-2-yl)amino)picolinamide], the pIC50 was under 7.00.

As for `Cc1nc(-c2ccccc2)c(Oc2ccnc(Nc3ccc(C(N)=O)cn3)c2)s1` [A-90, 6-((4-((2-Methyl-4-phenylthiazol-5-yl)oxy)pyridin-2-yl)amino)nicotinamide], the negative-log IC50 (pIC50) was over 7.00.

On to `COC(=O)c1ccc(Nc2cc(Oc3sc(C4CC4)nc3-c3ccccc3)ccn2)nc1` [A-130, Methyl 6-((4-((2-cyclopropyl-4-phenylthiazol-5-yl)oxy)pyridin-2-yl)amino)nicotinate], for which the pIC50 is over 7.00.

For `Cc1nc(-c2ccccc2)c(Oc2ccnc(Nc3cccc(NS(=O)(=O)C4CC4)c3)c2)s1` [A-75, N-(3-((4-((2-Methyl-4-phenylthiazol-5-yl)oxy)pyridin-2-yl)amino)phenyl)cyclopropanesulfonamide], the pIC50 is over 7.00.

On to `Nc1nc(-c2ccccc2)c(Oc2ccnc(Nc3ccc(F)nc3)c2)s1` [A-7, 5-((2-((6-Fluoropyridin-3-yl)amino)pyridin-4-yl)oxy)-4-phenylthiazol-2-amine], for which the pIC50 is under 7.00.

For `Nc1nc(-c2ccccc2)c(Oc2ccnc(Nc3ccnc(Cl)c3)c2)s1` [A-27, 5-((2-((2-Chloropyridin-4-yl)amino)pyridin-4-yl)oxy)-4-phenylthiazol-2-amine], the pIC50 is under 7.00.

Take `CCS(=O)(=O)c1cccc(Nc2cc(Oc3sc(C)nc3-c3ccccc3)ccn2)c1` [A-77, N-(3-(Ethylsulfonyl)phenyl)-4-((2-methyl-4-phenylthiazol-5-yl)oxy)pyridin-2-amine]: the pIC50 is over 7.00.

As for `Nc1nc(-c2ccccc2)c(Oc2ccnc(Nc3ccnc(F)c3)c2)s1` [A-30, 5-((2-((2-Fluoropyridin-4-yl)amino)pyridin-4-yl)oxy)-4-phenylthiazol-2-amine], the pIC50 is under 7.00.

On to `COC(=O)c1cccc(Nc2cc(Oc3sc(N(C)C)nc3-c3ccccc3)ccn2)n1` [A-162, Methyl 6-((4-((2-(dimethylamino)-4-phenylthiazol-5-yl)oxy)pyridin-2-yl)amino)picolinate], for which the pIC50 was over 7.00.

Consider `COc1cc(Nc2cc(Oc3sc(C)nc3-c3ccccc3)ccn2)ccn1` [A-88, N-(2-Methoxypyridin-4-yl)-4-((2-methyl-4-phenylthiazol-5-yl)oxy)pyridin-2-amine], for which the pIC50 was over 7.00.
